Results on 32 compounds are retold here after patent publication US9790180B2, “Piperidine derivatives as HDAC1/2 inhibitors” (Acetylon Pharmaceuticals, Inc., priority 2014, dated 2017).

Common to all, as to assay type: biochemical
One assay deals with HDAC3 (Homo sapiens (Human), UniProt O15379). In words: HDAC enzyme assay, HDAC3. To be noted: 24 hours pre-incubation with enzyme; read-out: IC50 (nM) HDAC3. As to the method:
(§1) Compounds for testing were diluted in DMSO to 50 fold the final concentration and a ten point three fold dilution series was made. The compounds were diluted in assay buffer (50 mM HEPES, pH 7.4, 100 mM KCl, 0.001% Tween-20, 0.05% BSA, 20 μM tris(2-carboxyethyl)phosphine) to 6 fold their final concentration. The HDAC enzymes (purchased from BPS Biosciences) were diluted to 1.5 fold their final concentration in assay buffer and pre-incubated with the compounds for 24 hours prior to addition of the substrate.
(§2) The substrate tripeptide substrate 3 (synthesized in house) for each enzyme was equal to the Km as determined by a substrate titration curve. The substrates were diluted in assay buffer at 6× their final concentration with 0.3 μM sequencing grade trypsin (Sigma). The substrate/trypsin mix was added to the enzyme/compound mix, the plate was shaken for 60 seconds and placed into a Spectramax M5 microtiter plate reader. The development of fluorescence was monitored for 30 min and the linear rate of the reaction was calculated. The IC50 was determined using Graph Pad Prism by a four parameter curve fit. The IC50 values obtained for the compounds of this invention are found in Table 1. Examples of the curves are found in FIGS. 1 and 4.

Another assay addresses HDAC2 (Homo sapiens (Human), UniProt Q92769). Description: HDAC enzyme assay, HDAC2. To be noted: 24 hours pre-incubation with enzyme; read-out: IC50 (nM) HDAC2. The protocol: as §1, §2
For a further assay, the target named is HDAC1 (Homo sapiens (Human), UniProt Q13547). In words: HDAC enzyme assay, HDAC1. To be noted: 24 hours pre-incubation with enzyme; read-out: IC50 (nM) HDAC1. As to the method: as §1, §2
Sequence of HDAC1 (Q13547 whole entry): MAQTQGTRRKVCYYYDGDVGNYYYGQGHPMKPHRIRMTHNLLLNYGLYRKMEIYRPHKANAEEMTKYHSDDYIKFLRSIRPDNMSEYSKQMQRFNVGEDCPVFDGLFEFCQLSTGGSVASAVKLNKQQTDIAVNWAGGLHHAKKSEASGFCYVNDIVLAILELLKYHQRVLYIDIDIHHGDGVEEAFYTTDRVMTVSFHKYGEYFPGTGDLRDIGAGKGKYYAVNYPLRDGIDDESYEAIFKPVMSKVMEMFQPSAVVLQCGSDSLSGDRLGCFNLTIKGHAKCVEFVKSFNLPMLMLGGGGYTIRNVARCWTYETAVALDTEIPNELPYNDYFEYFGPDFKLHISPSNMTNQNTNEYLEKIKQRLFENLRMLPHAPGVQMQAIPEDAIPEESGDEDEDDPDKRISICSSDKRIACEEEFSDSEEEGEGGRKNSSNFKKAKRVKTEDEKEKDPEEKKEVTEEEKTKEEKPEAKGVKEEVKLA

Sequence of HDAC2 (Q92769 whole entry): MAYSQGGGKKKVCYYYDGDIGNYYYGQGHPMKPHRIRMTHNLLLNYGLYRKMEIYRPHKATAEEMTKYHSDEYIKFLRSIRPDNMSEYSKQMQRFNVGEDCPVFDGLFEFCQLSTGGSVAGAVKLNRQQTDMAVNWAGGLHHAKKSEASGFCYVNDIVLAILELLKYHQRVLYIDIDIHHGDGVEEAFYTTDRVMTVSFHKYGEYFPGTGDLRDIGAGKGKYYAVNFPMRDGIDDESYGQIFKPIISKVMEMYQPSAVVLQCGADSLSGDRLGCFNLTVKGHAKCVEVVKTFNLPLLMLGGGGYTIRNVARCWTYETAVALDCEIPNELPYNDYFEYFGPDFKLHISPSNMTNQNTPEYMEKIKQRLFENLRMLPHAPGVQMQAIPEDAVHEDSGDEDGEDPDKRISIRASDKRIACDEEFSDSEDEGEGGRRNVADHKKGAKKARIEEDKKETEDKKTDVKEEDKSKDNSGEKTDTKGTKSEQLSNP
Sequence of HDAC3 (O15379 whole entry): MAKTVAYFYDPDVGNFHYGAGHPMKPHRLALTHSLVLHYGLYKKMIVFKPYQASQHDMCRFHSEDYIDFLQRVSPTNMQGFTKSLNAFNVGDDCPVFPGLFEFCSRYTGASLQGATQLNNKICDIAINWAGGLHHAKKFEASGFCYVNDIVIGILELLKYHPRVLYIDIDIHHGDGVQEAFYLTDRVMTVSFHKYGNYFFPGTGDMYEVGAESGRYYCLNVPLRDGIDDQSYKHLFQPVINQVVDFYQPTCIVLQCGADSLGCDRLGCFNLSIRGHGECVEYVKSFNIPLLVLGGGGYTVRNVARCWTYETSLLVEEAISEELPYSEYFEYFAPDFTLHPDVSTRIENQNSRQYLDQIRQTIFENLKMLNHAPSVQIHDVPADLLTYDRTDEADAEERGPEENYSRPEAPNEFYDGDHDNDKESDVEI
Sequence of HDAC3 (Q9Y618 395-489 partner): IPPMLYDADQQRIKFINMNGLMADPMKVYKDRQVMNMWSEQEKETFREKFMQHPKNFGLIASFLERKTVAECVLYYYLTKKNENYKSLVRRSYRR

Usually IC50 stands for the concentration needed to halve the response being measured. As for `CC1(Nc2ncc(C(=O)Nc3cc(-c4cccs4)ccc3N)cn2)CCN(C(=O)Oc2ccccc2)CC1` [Compound 007], the IC50 at HDAC3 turned out to be 929 nM; on HDAC2, 703 nM; on HDAC1 it was 118 nM.
Taken in the same sequence, the figures for `CC1(Nc2ncc(C(=O)Nc3cc(-c4cccs4)ccc3N)cn2)CCN(C(=O)N2CCOCC2)CC1` [Compound 008] were 124 nM, 37 nM and 9 nM.
On the same counts, the results for `Nc1ccc(-c2cccs2)cc1NC(=O)c1cnc(NC2CCN(C(=O)N3CCCCC3)CC2)nc1` [Compound 009] are 250 nM, 145 nM and 32 nM.
As for `CC1(Nc2ncc(C(=O)Nc3cc(-c4cccs4)ccc3N)cn2)CCN(C(=O)N2CCNCC2)CC1` [Compound 010], the IC50 at HDAC2 worked out at 26 nM; on HDAC1, 7.3 nM.
As to `CN1CCN(C(=O)N2CCC(C)(Nc3ncc(C(=O)Nc4cc(-c5cccs5)ccc4N)cn3)CC2)CC1` [Compound 011], the IC50 at HDAC3 amounted to 201 nM; on HDAC2, 32 nM; on HDAC1 it was 8.5 nM.
On the same counts, the results for `CC1(Nc2ncc(C(=O)Nc3cc(-c4cccs4)ccc3N)cn2)CCN(C(=O)N2CCC(F)(F)CC2)CC1` [Compound 012] are 1270 nM, 177 nM and 19 nM.
Taken in the same sequence, the figures for `CC1(Nc2ccc(C(=O)Nc3cc(-c4cccs4)ccc3N)cc2)CCN(C(=O)N2CCCC2)CC1` [Compound 013] were 412 nM, 14 nM and 4 nM.
Taken in the same sequence, the figures for `CC1(Nc2ncc(C(=O)Nc3cc(-c4cccs4)ccc3N)cn2)CCN(C(=O)N2CCC(O)CC2)CC1` [Compound 014] were more than 2000 nM, 299 nM and 63 nM.
Turning to `CC1(Nc2ccc(C(=O)Nc3cc(-c4cccs4)ccc3N)cc2)CCN(C(=O)N2CCNCC2)CC1` [Compound 015], the IC50 on HDAC3 was 149 nM; at HDAC2 it was 12 nM; on HDAC1, 3.2 nM.
Taken in the same sequence, the figures for `CN1CCN(C(=O)N2CCC(C)(Nc3ccc(C(=O)Nc4cc(-c5cccs5)ccc4N)cc3)CC2)CC1` [Compound 016] were 145 nM, 13 nM and 3.2 nM.
Taken in the same sequence, the figures for `CCC1(Nc2ccc(C(=O)Nc3cc(-c4cccs4)ccc3N)cc2)CCN(C(=O)N2CCOCC2)CC1` [Compound 017] were 1740 nM, 99 nM and 18 nM.
Taken in the same sequence, the figures for `Nc1ccc(-c2cccs2)cc1NC(=O)c1cnc(N2CCCC23CCN(C(=O)N2CCCC2)CC3)nc1` [Compound 018] were 516 nM, 78 nM and 12 nM.
For `Nc1ccc(-c2cccs2)cc1NC(=O)c1ccc(NC2CCN(C(=O)N3CCOCC3)CC2)cc1` [Compound 020], the IC50 on HDAC3 is 304 nM; on HDAC2, 17 nM; on HDAC1, 3.7 nM.
On the same counts, the results for `Nc1ccc(-c2cccs2)cc1NC(=O)c1ccc(NC2CCN(C(=O)C3CCCCC3)CC2)cc1` [Compound 021] are 555 nM, 72 nM and 15 nM.
In the case of `Nc1ccc(-c2cccs2)cc1NC(=O)c1ccc(NC2CCN(C(=O)C3CCOCC3)CC2)cc1` [Compound 022], the values for the IC50 at HDAC3, on HDAC2 and on HDAC1 were 203 nM, 18 nM and 5 nM, respectively.
Taken in the same sequence, the figures for `CCC1(Nc2ccc(C(=O)Nc3cc(-c4cccs4)ccc3N)cc2)CCN(C(=O)N2CCNCC2)CC1` [Compound 023] were 267 nM, 20 nM and 3.9 nM.
On the same counts, the results for `Nc1ccc(-c2cccs2)cc1NC(=O)c1ccc(NC2CCN(C(=O)C3(O)CCCCC3)CC2)cc1` [Compound 024] are 287 nM, 26 nM and 6 nM.
Taken in the same sequence, the figures for `Nc1ccc(-c2cccs2)cc1NC(=O)c1ccc(NC2CCN(C(=O)C3(O)CCCC3)CC2)cc1` [Compound 025] were 355 nM, 26 nM and 7 nM.
Take `CN1CCC(Nc2ncc(C(=O)Nc3cc(-c4cccs4)ccc3N)cn2)(c2ccccc2)CC1` [Compound 026]: the IC50 turned out to be 315 nM on HDAC3, 72 nM at HDAC2 and 10 nM at HDAC1.
Taken in the same sequence, the figures for `Nc1ccc(-c2cccs2)cc1NC(=O)c1cnc(NC2CCN(c3ccccc3)CC2)nc1` [Compound 027] were more than 2000 nM, 690 nM and 121 nM.
On to `Nc1ccc(-c2cccs2)cc1NC(=O)c1ccc(NC2CCN(c3ccccc3)CC2)cc1` [Compound 028], for which the IC50 was more than 2000 nM on HDAC3, 443 nM at HDAC2 and 74 nM on HDAC1.
Turning to `CC1(Nc2ccc(C(=O)Nc3cc(-c4ccncc4)ccc3N)cc2)CCN(C(=O)N2CCOCC2)CC1` [Compound 029], the results for the IC50 on HDAC3 and at HDAC2 were 541 nM and 17 nM, respectively.
In the case of `CC1(Nc2ccc(C(=O)Nc3cc(-c4ccncc4)ccc3N)cc2)CCN(C(=O)N2CCCC2)CC1` [Compound 030], the IC50 on HDAC3 came out at 466 nM; at HDAC2, 9.4 nM; on HDAC1 it was 7.1 nM.
Taken in the same sequence, the figures for `CC1(Nc2ccc(C(=O)Nc3cc(-c4cccnc4)ccc3N)cc2)CCN(C(=O)N2CCOCC2)CC1` [Compound 031] were 264 nM, 71 nM and 91 nM.
On the same counts, the results for `Nc1ccc(-c2ccncc2)cc1NC(=O)c1ccc(NC2CCN(C(=O)N3CCCC3)CC2)cc1` [Compound 032] are 397 nM, 20 nM and 17 nM.
On the same counts, the results for `Nc1ccc(-c2ccccc2)cc1NC(=O)c1cnc(N(c2ccccc2)C2CCN(C(=O)Cc3c[nH]c4ccccc34)CC2)nc1` [Compound 034] are more than 2000 nM, 346 nM and 93 nM.
Turning to `Cc1[nH]c2ccccc2c1CC(=O)N1CCC(N(c2ccccc2)c2ncc(C(=O)Nc3cc(-c4ccccc4)ccc3N)cn2)CC1` [Compound 036], the 50% inhibitory concentration (IC50) was more than 2000 nM on HDAC3, 996 nM on HDAC2 and 74 nM at HDAC1.
Taken in the same sequence, the figures for `CC1(Nc2ccc(C(=O)Nc3cc(-c4ccccc4)ccc3N)cc2C2CC2)CCN(C(=O)N2CCOCC2)CC1` [Compound 037] were 1860 nM, 377 nM and 432 nM.
Taken in the same sequence, the figures for `Nc1ccc(-c2ccccc2)cc1NC(=O)c1cnc(NC2CCNc3ccccc32)nc1` (stereo not shown) [Compound 038] were more than 2000 nM, 319 nM and 101 nM.
Taken in the same sequence, the figures for `Nc1ccc(-c2ccccc2)cc1NC(=O)c1cnc(NC2CCNCC2)nc1` [Compound 039] were 321 nM, 59 nM and 17 nM.
Turning to `CN1CCC(Nc2ncc(C(=O)Nc3cc(-c4ccccc4)ccc3N)cn2)CC1` [Compound 040], the IC50 on HDAC3 came out at 277 nM; on HDAC2 it was 39 nM; at HDAC1 it was 8 nM.
On the same counts, the results for `CN1CCC(Nc2ncc(C(=O)Nc3cc(-c4ccccc4)ccc3N)cn2)c2ccccc21` (stereo not shown) [Compound 042] are more than 2000 nM, 714 nM and 210 nM.
